Results published in patent US5506102A (priority 1993, dated 1996).
pIC50: −log10 of the molar value. Entries after “also recorded” stand apart in the source; their conditions may differ. Blank lines part the entries; values can stand above or below the compound they belong to.

Tests used:
human estrogen receptor [1] = target: T1, human estrogen receptor (Homo sapiens, UniProt P03372); test: ER transcriptional activity on MMTV-ERE-LUC, CV-1 cells, ER co-expressed with PR-B; type: cell-based; conditions: FIG. 11B
T1 construct: expressed in transfected cells; host or cells: CV-1
T1 sequence (P03372 1-595): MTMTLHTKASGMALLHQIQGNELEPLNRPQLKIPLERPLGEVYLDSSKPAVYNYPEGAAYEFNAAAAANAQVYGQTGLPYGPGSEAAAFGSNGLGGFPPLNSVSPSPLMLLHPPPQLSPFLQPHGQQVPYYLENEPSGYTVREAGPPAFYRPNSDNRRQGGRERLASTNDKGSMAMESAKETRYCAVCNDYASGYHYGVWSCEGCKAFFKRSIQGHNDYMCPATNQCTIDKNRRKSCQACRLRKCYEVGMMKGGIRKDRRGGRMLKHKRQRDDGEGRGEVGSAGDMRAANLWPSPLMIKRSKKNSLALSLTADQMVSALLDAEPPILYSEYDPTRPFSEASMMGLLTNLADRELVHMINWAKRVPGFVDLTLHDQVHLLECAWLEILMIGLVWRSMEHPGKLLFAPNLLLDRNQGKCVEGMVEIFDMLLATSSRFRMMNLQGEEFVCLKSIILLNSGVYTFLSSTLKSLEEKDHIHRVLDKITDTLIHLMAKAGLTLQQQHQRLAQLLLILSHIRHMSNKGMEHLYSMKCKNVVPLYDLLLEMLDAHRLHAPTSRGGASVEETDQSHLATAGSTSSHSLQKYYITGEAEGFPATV
Method: (§1) All values were normalized for transfection efficiency by simultaneous estimation of luciferase and β-galactocidase activities. The relative luciferase activity is calculated by dividing the normalized luciferase value at a given point by that obtained in the absence of transfected receptor or ligand. Data shown represent the mean +/- the average deviation from the mean of triplicate estimations.
(§2) Vegeto et al., supra. Cells were plated into 96-well tissue culture plates. The vector DNA was introduced into the CV-1 cells using calcium phosphate coprecipitation as described herein. More specifically, 20 μg of DNA/ml of transfection buffer were used in each transfection. Each transfection mix included 0.5 μg of pRST7hER, 9.5 μg of MMTV-ERE-LUC, 5 μg of pCH110, (which contains the gene for β-galactosidase) as an internal control and 5 μg of PGEM4 DNA as a carrier. […] The concentration of pXVhPR-A vector chosen was determined by performing the experiment at several different concentrations of vector, and then using that concentration that was optimal for transcriptional readout. […] The Normalized LUC activity was calculated by dividing the raw luciferase (×10^4) units for each point by the β-galactosidase activity [(OD415 nm ×10^5)/time min.] at that point.

human estrogen receptor [2] = target: T1, human estrogen receptor; test: ER transcriptional activity on MMTV-ERE-LUC, CV-1 cells, ER alone; type: cell-based; conditions: 10^-7 M 17-β-estradiol, FIG. 11B
Method: as §1
(§3) Experimental protocols and data calculation are as described in FIG. 11. The experiment detailed above is representative of independent assays (N>3). Data shown represent the mean +/- the average deviation from the mean of triplicate estimations.
as §2, with “transfection.” for “transfection. Each transfection mix included 0.5 μg of pRST7hER, 9.5 μg of MMTV-ERE-LUC, 5 μg of pCH110, (which contains the gene for β-galactosidase) as an internal control and 5 μg of PGEM4 DNA as a carrier.”

human estrogen receptor [3] = test: ER transcriptional activity on MMTV-ERE-LUC, CV-1 cells, ER co-expressed with PR-A; type: cell-based
Method: as §1, §3
Vegeto et al., supra. Cells were plated into 96-well tissue culture plates. The vector DNA was introduced into the CV-1 cells using calcium phosphate coprecipitation as described herein. More specifically, 20 μg of DNA/ml of transfection buffer were used in each transfection. Each transfection mix included 0.5 μg of pRST7hER, 9.5 μg of MMTV-ERE-LUC, 5 μg of pCH110, (which contains the gene for β-galactosidase) as an internal control and 5 μg of PGEM4 DNA as a carrier. Depending on the experiment, 0.1 μg pSVhPR-A or pSVhPR-B and an amount of pSVXV2neo (Dr. Bert O'Malley, Baylor College of Medicine) to bring the total amount of DNA to 20 μg was added. The concentration of pXVhPR-A vector chosen was determined by performing the experiment at several different concentrations of vector, and then using that concentration that was optimal for transcriptional readout. The concentration of pSVhPR-B vector was chosen based upon the amount required to give an identical amount of immunoreactive PR-A and PR-B. After transfections using a Biomek 1000 automated laboratory workstation, the cells were incubated with the precipitate for 6 hours. Cells were washed with PBS and incubated for 40 hours with or without hormones as indicated. Cell extracts were prepared as previously described herein and assayed for luciferase (LUC) and β-galactosidase activities. The Normalized LUC activity was calculated by dividing the raw luciferase (×10^4) units for each point by the β-galactosidase activity [(OD415 nm ×10^5)/time min.] at that point.

ER = ER transcriptional activity on MMTV-ERE-LUC in HepG2 and HS578T cells; type: cell-based; conditions: data not shown
PR = conditions: cited from earlier work
human androgen receptor [4] = target: T2, human androgen receptor (Homo sapiens, UniProt P10275); test: AR transcriptional activity on MMTV-LUC, CV-1 cells, AR co-expressed with PR-A; type: cell-based; conditions: AR plus PR-A, FIG. 10B
T2 sequence (P10275 1-920): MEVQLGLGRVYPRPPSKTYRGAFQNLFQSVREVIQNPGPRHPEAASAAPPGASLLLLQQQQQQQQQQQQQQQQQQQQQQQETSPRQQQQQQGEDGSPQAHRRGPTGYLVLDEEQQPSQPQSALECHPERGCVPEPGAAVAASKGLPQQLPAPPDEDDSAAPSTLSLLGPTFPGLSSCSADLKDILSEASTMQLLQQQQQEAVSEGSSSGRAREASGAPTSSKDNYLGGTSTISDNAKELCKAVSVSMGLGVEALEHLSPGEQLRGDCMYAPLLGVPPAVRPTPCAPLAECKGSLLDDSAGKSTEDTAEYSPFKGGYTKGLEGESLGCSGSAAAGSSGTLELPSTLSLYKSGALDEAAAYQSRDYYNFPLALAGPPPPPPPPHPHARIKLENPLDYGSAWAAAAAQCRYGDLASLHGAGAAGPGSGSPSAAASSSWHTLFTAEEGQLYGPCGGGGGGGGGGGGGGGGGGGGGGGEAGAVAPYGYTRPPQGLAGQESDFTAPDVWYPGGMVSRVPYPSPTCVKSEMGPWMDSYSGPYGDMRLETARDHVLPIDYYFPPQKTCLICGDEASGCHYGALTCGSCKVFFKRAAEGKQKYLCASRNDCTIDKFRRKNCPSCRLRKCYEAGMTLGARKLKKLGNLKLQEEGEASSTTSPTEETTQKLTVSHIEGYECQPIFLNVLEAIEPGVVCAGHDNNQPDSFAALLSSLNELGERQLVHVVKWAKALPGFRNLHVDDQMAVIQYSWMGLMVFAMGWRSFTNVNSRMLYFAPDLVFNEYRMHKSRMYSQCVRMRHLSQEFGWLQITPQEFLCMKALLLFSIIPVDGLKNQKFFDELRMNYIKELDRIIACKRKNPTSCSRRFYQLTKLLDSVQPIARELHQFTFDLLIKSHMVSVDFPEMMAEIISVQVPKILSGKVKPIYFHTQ
Method: (§4) FIGS. 10A-10B are a series of graphs showing CV-1 cells that were transiently transfected with an expression vector for the human androgen receptor (pRShAR) alone, or in combination with phPR-A together with 5 µg/ml of the MMTV-LUC reporter and 5 µg/ml of pCH110 as an internal control. […] The relative luciferase activity is calculated by dividing the normalized luciferase value at a given point by that obtained in the absence of transfected receptor or ligand. […] The data are presented as percent (%) activation, where 100% represents the maximal induction achieved by human androgen receptor at 10^ -8 M DHT. The experimental data represents mean values +/- the average deviation from the mean of quadruplicate estimations;
(§5) Cells were seeded in 12-well, 96-well or 10 cm tissue culture plates. […] 20 μg of DNA/ml of transfection buffer were used in each transfection reaction. In this mix, the concentration of the luciferase plasmids and that of the internal control plasmid pCH110 (Pharmacia, Inc.), which contains the gene for the β-galactosidase enzyme, remained constant ([…] of each plasmid DNA), while the receptor plasmid concentration varied as indicated for each experiment. […]

[5] = tested on: glucocorticoid receptor (GR); test: GR transcriptional activity on MMTV-LUC, CV-1 cells, GR co-expressed with PR-A; type: cell-based
Method: (§6) Cells were seeded in 12-well, 96-well or 10 cm tissue culture plates. […] 20 μg of DNA/ml of transfection buffer were used in each transfection reaction. In this mix, the concentration of the luciferase plasmids and that of the internal control plasmid pCH110 (Pharmacia, Inc.), which contains the gene for the β-galactosidase enzyme, remained constant ([…] of each plasmid DNA), while the receptor plasmid concentration varied as indicated for each experiment. Different amounts of receptor parental plasmid, pSV2-neo (Dr. Bert O'Malley, Baylor College of Medicine, Houston, Tex.) was included to keep constant the total amount of the SV40 enhancer vectors. pGEM4 plasmid DNA (Promega Biotech, Madison, Wis.) was added to balance the total DNA concentration to 20 g/reaction. For the 96-well plate experiments, transfections were performed on a Biomek 1000 Automated Laboratory Workstation (Beckman Instruments, Fullerton, Calif.).
(§7) Cells were seeded 24 hours prior to transfection in the fiat-bottom tissue culture plates ([…]) in phenol red-free DMEM containing 10% FCS. […] Using calcium phosphate co-precipitation, DNA solution was added dropwise with vortexing into an equal volume of 2X HBS pH 6.9 (280 mM NaCl. 50 mM HEPES, 1.5 mM Na2 HPO4) and precipitates were allowed to form for 20 minutes. Cells were transfected ( […] of DNA mix/well) for 6 hours and then washed with phosphate-bufferedsaline (PBS) to remove the precipitate. Cells were incubated for an additional 24 hours in phenol red-free medium containing 10% charcoal-treated FCS, with or without hormones as indicated in the text. Cell extracts were prepared as described by Berger et al., Supra, and assayed for luciferase and β-galactosidase activities. All determinations were performed in triplicates in at least two independent experiments, and were normalized for transfection efficiency by using β-galactosidase as an internal control.

AR = conditions: stated without data; cited from earlier work
human androgen receptor [6] = target: T2, human androgen receptor; test: AR transcriptional activity on MMTV-LUC, CV-1 cells, AR alone; type: cell-based; conditions: FIG. 10
Method: as §4, §5

[7] = target: T3, glucocorticoid receptor (GR) (Homo sapiens, UniProt P04150)
T3 sequence (P04150 1-777): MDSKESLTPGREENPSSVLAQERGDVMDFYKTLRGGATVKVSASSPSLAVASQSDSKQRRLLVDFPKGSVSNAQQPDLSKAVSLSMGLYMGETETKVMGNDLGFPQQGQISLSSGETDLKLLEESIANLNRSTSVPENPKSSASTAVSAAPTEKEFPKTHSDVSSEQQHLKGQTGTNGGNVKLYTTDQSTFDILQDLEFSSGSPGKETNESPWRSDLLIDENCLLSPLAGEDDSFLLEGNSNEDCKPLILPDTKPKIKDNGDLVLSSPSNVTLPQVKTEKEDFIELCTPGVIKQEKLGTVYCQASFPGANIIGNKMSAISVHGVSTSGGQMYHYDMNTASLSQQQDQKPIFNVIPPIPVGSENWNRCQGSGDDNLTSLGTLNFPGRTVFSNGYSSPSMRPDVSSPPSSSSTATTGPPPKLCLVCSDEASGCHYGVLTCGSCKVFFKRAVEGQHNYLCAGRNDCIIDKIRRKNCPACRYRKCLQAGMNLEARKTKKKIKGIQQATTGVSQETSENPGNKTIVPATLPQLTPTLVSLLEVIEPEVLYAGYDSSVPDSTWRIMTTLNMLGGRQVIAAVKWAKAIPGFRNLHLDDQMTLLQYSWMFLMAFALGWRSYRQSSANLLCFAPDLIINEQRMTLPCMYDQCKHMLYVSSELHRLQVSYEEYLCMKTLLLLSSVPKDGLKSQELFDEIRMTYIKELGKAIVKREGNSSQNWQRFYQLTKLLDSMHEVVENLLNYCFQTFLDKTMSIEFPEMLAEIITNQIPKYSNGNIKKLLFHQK
Method: as §6, §7

SMILES: CCCCN(C)C(=O)CCCCCCCCCC[C@@H]1Cc2cc(O)ccc2[C@H]2CC[C@]3(C)[C@@H](O)CC[C@H]3[C@H]12 [ICI-164,384]
effect of hPR-B co-expression on activity of ICI-164,384 (human estrogen receptor [1]): did not affect the activity
inhibition of 17-β-estradiol induced ER transcriptional activation (human estrogen receptor [2]): can be inhibited by addition of the pure anti-estrogen ICI-164,384
effect of hPR-A co-expression on activity of ICI-164,384 (human estrogen receptor [3]; FIG. 11B): did not affect the activity

pIC50 (human estrogen receptor [3]; 10^-7 M 17-β-estradiol, read-out: half maximal inhibition (IC50) of ER in the presence of hPR-A): 8.52
SMILES: CN(C)c1ccc([C@H]2C[C@]3(C)[C@@H](CC[C@]3(O)CCCO)[C@@H]3CCC4=CC(=O)CCC4=C32)cc1 [ZK98299]
anti-estrogenic activity (ER; HS578T cells): both anti-progestins functioned as anti-estrogens
anti-estrogenic activity (ER; HepG2 cells): neither anti-progestin exhibited any anti-estrogenic activity
effect on PR DNA binding (PR): retards DNA binding; also recorded: interferes with DNA binding
effect on DHT-induced AR activity in the presence of PR-A (human androgen receptor [4]): addition of PR-A to the cells increased this compound's sensitivity
inhibition of GR function via PR-A ([5]; MMTV promoter, dexamethasone present, FIG. 8A): mediated an inhibition of GR function; also recorded: promotes PR-A repressor function
affinity for AR (AR): low affinity for AR
effect on DHT-induced AR activity (human androgen receptor [6]): minimal direct effects on AR transcriptional activity
efficacy compared to the pure anti-estrogen ICI-164,384 (human estrogen receptor [3]; PR-A co-expressed, 100% = 10^-7 M 17-β-estradiol + 10^-6 M ICI-164,384, FIG. 12): 70%

maximally activated GR (100% value) [7]: > 450 normalized response
maximal activity of GR (100% value) ([7]; cv-1 cells, 0.01 µM): > 450 fold normalized response
induction of MMTV promoter activity ([7]; cv-1 cells, 24 h, 0.1 µM): 450 fold
SMILES: C[C@@H]1C[C@H]2[C@@H]3CCC4=CC(=O)C=C[C@]4(C)[C@@]3(F)[C@@H](O)C[C@]2(C)[C@@]1(O)C(=O)CO [dexamethasone]
dexamethasone induction of GR activity, of control levels [5]: about 53%

SMILES: CC(=O)O[C@]1(C(C)=O)CC[C@H]2[C@@H]3C[C@H](C)C4=CC(=O)CC[C@]4(C)[C@H]3CC[C@@]21C [medroxyprogesterone acetate, Medroxyprogesterone acetate]
anti-estrogen activity of PR agonists (human estrogen receptor [3]; PR-A co-expressed, 10^-7 M 17-β-estradiol, FIG. 13): considerably less effective
